Data set [1] has as its system recombinant protein USTB-05-C (MlrC). The following applies: pH 7.3.
The test system is the same in data set [2]. Put plainly: in vitro. The conditions noted are these: Sphingopyxis sp. USTB-05, isolated enzyme, pH 7.3.

On to `C/C=C(/C(=O)N[C@@H](C(=O)O)[C@H](C)C(=O)N[C@@H](CCCNC(=N)N)C(=O)O)N(C)C(=O)CC[C@@H](NC(=O)[C@@H](C)[C@@H](N)/C=C/C(C)=C/[C@H](C)[C@H](Cc1ccccc1)OC)C(=O)O` [linear NOD], for which, in data set [1], the “time to complete removal (degradation) of linear NOD by purified MlrC” value is recorded as ≤ 6 h. The metabolised at 4 h in data set [2] was ~98.7%.

The record behind these values is PMC9506587 (Toxins, 2022).
